Data reported in PubChem BioAssay AID248 (DTP/NCI, 2004).
Where “and” joins values, the source holds several entries; their conditions need not be identical. Equal entries are not always repeated. Toxic doses and inconclusive results are not listed. No stated cut-off is given here; in the data, active means T/C of 150% or more; inactive means T/C below 125%.

Test system: L1210 leukemia ip in BDF1 mice, survival T/C
Experiment: NCI In Vivo Anticancer Drug Screen. Data for tumor model L1210 Leukemia (intraperitoneal) in B6D2F1 (BDF1) mice
Settings: endpoint: mean survival time, higher = longer survival
Procedure, shortened: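 Value reflects the ratio of survival in compound-treated mice to survival in vehicle-treated controls, with both groups carrying the same transplanted tumor.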

[1] = dose: 100.0 mg/kg/injection, schedule: Q04DX003 (ip), vehicle: saline
[2] = dose: 200.0 mg/kg/injection, schedule: Q04DX003 (ip), vehicle: saline
[3] = dose: 400.0 mg/kg/injection, schedule: Q04DX003 (ip), vehicle: saline
[4] = dose: 50.0 mg/kg/injection, schedule: Q01DX009 (ip), vehicle: saline
[5] = dose: 100.0 mg/kg/injection, schedule: Q01DX009 (ip), vehicle: saline with Tween-80
[6] = dose: 200.0 mg/kg/injection, schedule: Q01DX009 (ip), vehicle: saline with Tween-80
[7] = dose: 200.0 mg/kg/injection, schedule: Q01DX009 (ip), vehicle: other
[8] = dose: 400.0 mg/kg/injection, schedule: Q01DX009 (ip), vehicle: saline with Tween-80
[9] = dose: 100.0 mg/kg/injection, schedule: Q01DX009 (ip), vehicle: saline
[10] = dose: 100.0 mg/kg/injection, schedule: Q01DX001 (ip), vehicle: saline
[11] = dose: 200.0 mg/kg/injection, schedule: Q01DX001 (ip), vehicle: saline
[12] = dose: 400.0 mg/kg/injection, schedule: Q01DX001 (ip), vehicle: saline
[13] = dose: 100.0 mg/kg/injection, schedule: Q04DX002 (ip), vehicle: saline with Tween-80
[14] = dose: 200.0 mg/kg/injection, schedule: Q04DX002 (ip), vehicle: saline with Tween-80
[15] = dose: 400.0 mg/kg/injection, schedule: Q04DX002 (ip), vehicle: saline with Tween-80
[16] = dose: 100.0 mg/kg/injection, schedule: Q01DX009 (ip), vehicle: Klucel (hydroxypropylcellulose) (HPC)
[17] = dose: 100.0 mg/kg/injection, schedule: Q04DX003 (ip), vehicle: Klucel (hydroxypropylcellulose) (HPC)
[18] = dose: 200.0 mg/kg/injection, schedule: Q01DX009 (ip), vehicle: Klucel (hydroxypropylcellulose) (HPC)
[19] = dose: 200.0 mg/kg/injection, schedule: Q04DX003 (ip), vehicle: Klucel (hydroxypropylcellulose) (HPC)
[20] = dose: 400.0 mg/kg/injection, schedule: Q04DX003 (ip), vehicle: Klucel (hydroxypropylcellulose) (HPC)
[21] = dose: 400.0 mg/kg/injection, schedule: Q01DX009 (ip), vehicle: Klucel (hydroxypropylcellulose) (HPC)

Measured: T/C

C=CCCCCCCCCC(=O)NCCCC(OCC)OCC
inactive: [1] 106 % of control | [2] 95 % of control | [3] 95 % of control

Cc1ccc(S(=O)(=O)SC(Cl)(Cl)Cl)cc1
inactive: [4] 105 % of control

Cc1nc(N)[nH]c(=O)c1CCCN=Cc1cccc([N+](=O)[O-])c1
inactive: dose: 12.5 mg/kg/injection, schedule: Q01DX001 (ip), vehicle: Klucel (hydroxypropylcellulose) (HPC) 110 % of control | dose: 25.0 mg/kg/injection, schedule: Q01DX001 (ip), vehicle: Klucel (hydroxypropylcellulose) (HPC) 103 % of control | dose: 50.0 mg/kg/injection, schedule: Q01DX001 (ip), vehicle: Klucel (hydroxypropylcellulose) (HPC) 97 % of control

COc1cc(CC2=NCCc3cc(OC)c(OCc4ccccc4)cc32)ccc1OCc1ccccc1
inactive: [5] 94 % of control | [6] 100 % of control

ClC1(Cl)C2C=CC=CCC21 (stereo unspecified)
inactive: dose: 100.0 mg/kg/injection, schedule: Q01DX009 (ip), vehicle: other 103 % of control | dose: 100.0 mg/kg/injection, schedule: Q04DX003 (ip), vehicle: other 103 % of control | [7] 97 % of control | dose: 200.0 mg/kg/injection, schedule: Q04DX003 (ip), vehicle: other 92 % of control | dose: 400.0 mg/kg/injection, schedule: Q01DX009 (ip), vehicle: other 92 % of control

CCCCS(=O)CC(O)(c1ccccc1)c1ccccc1 (stereo unspecified)
inactive: dose: 100.0 mg/kg/injection, schedule: Q03DX002 (ip), vehicle: saline with Tween-80 102 % of control | dose: 200.0 mg/kg/injection, schedule: Q03DX002 (ip), vehicle: saline with Tween-80 105 % of control

COc1cc(OC)c(Br)cc1C
inactive: [5] 100 % of control | dose: 100.0 mg/kg/injection, schedule: Q04DX003 (ip), vehicle: saline with Tween-80 100 % of control | [6] 101 % of control | dose: 200.0 mg/kg/injection, schedule: Q04DX003 (ip), vehicle: saline with Tween-80 96 % of control | [8] 102 % of control | dose: 400.0 mg/kg/injection, schedule: Q04DX003 (ip), vehicle: saline with Tween-80 104 % of control

C=C1C(=O)CCC1C(=O)O (stereo unspecified)
inactive: [9] 101 % of control | dose: 200.0 mg/kg/injection, schedule: Q01DX009 (ip), vehicle: saline 110 % of control | dose: 400.0 mg/kg/injection, schedule: Q01DX009 (ip), vehicle: saline 112 % of control

CCCCCc1c(CCCC)c(=O)[nH]c2ccccc12
inactive: [10] 97 % of control | [11] 98 % of control | [12] 90 % of control

NC(COC(c1ccccc1)(c1ccccc1)c1ccccc1)C(=O)O (stereo unspecified)
inactive: dose: 25.0 mg/kg/injection, schedule: Q01DX009 (ip), vehicle: other 100 % of control | [7] 98 % of control

CCOC(=O)C(CCC(C)C)C(C)=O (stereo unspecified)
inactive: [5] 97 % of control | [13] 101 % of control | [6] 112 % of control | [14] 97 % of control | [8] 104 % of control | [15] 101 % of control

C[N+]1(Cc2c[nH]c3ccsc23)CCCCC1
inactive: dose: 3.0 mg/kg/injection, schedule: Q01DX009 (ip), vehicle: saline with Tween-80 99 % of control | dose: 6.0 mg/kg/injection, schedule: Q01DX009 (ip), vehicle: saline with Tween-80 97 % of control | dose: 12.0 mg/kg/injection, schedule: Q01DX009 (ip), vehicle: saline with Tween-80 90 % of control | dose: 12.5 mg/kg/injection, schedule: Q04DX003 (ip), vehicle: saline with Tween-80 101 % of control

CCCC1OC(=O)C(C)O1 (stereo unspecified)
inactive: [16] 94 % of control | [17] 105 % of control | [18] 97 % of control | [19] 100 % of control | [20] 103 % of control

O=c1cc(C(F)(F)F)nc(C(F)(F)F)[nH]1
inactive: dose: 29.0 mg/kg/injection, schedule: Q01DX Z (ip), vehicle: methylcellulose (MC) 90 % of control | dose: 45.0 mg/kg/injection, schedule: Q01DX Z (ip), vehicle: methylcellulose (MC) 89 % of control | dose: 67.0 mg/kg/injection, schedule: Q01DX Z (ip), vehicle: methylcellulose (MC) 89 % of control | dose: 100.0 mg/kg/injection, schedule: Q01DX Z (ip), vehicle: methylcellulose (MC) 88 % of control

ClC/C=C/C[P+](c1ccccc1)(c1ccccc1)c1ccccc1
inactive: dose: 1.56 mg/kg/injection, schedule: Q01DX009 (ip), vehicle: saline 89 % of control | dose: 3.12 mg/kg/injection, schedule: Q01DX009 (ip), vehicle: saline 99 % of control | dose: 6.25 mg/kg/injection, schedule: Q01DX009 (ip), vehicle: saline 95 % of control

CS(=O)(=O)OCCCS(=O)(=O)O
inactive: [10] 102 % of control

COc1cc(OC)c(/C=C/c2c3ccccc3cc[n+]2C)c(OC)c1
inactive: dose: 0.78 mg/kg/injection, schedule: Q01DX009 (ip), vehicle: saline with Tween-80 100 % of control | dose: 1.56 mg/kg/injection, schedule: Q01DX009 (ip), vehicle: saline with Tween-80 97 % of control

COc1cccc(NC(=O)NCCCl)c1OC
inactive: [17] 107 % of control | [19] 96 % of control | [20] 102 % of control

CC(C)=CC(=O)CC(O)(C(F)(F)F)C(F)(F)Cl (stereo unspecified)
inactive: [4] 92 % of control | [9] 100 % of control

COc1ccc(C2(OC(=O)c3ccc([N+](=O)[O-])cc3)C3C=CC2CC3)cc1 (stereo unspecified)
inactive: dose: 100.0 mg/kg/injection, schedule: Q04DX002 (ip), vehicle: Klucel (hydroxypropylcellulose) (HPC) 87 % of control | dose: 200.0 mg/kg/injection, schedule: Q04DX002 (ip), vehicle: Klucel (hydroxypropylcellulose) (HPC) 107 % of control | dose: 400.0 mg/kg/injection, schedule: Q04DX002 (ip), vehicle: Klucel (hydroxypropylcellulose) (HPC) 90 % of control

COc1cc(C2=C3C(=O)OC[C@@H]3Cc3cc4c(cc32)OCO4)cc(OC)c1OC
inactive: [10] 94 % of control | [16] 91 % of control | [17] 95 % of control | [1] 105 % of control | [11] 104 % of control | [18] 94 % of control | [19] 97 % of control | [2] 96 % of control | [12] 93 % of control | [21] 96 % of control | [20] 92 % of control | [3] 101 % of control

O=C(Nc1ccc(C2=NCCO2)cc1)c1ccc(C(=O)Nc2ccc(C3=NCCO3)cc2)cc1
inactive: dose: 15.0 mg/kg/injection, schedule: Q01DX Z (ip), vehicle: carboxymethylcellulose (CMC) 105 % of control | dose: 30.0 mg/kg/injection, schedule: Q01DX Z (ip), vehicle: carboxymethylcellulose (CMC) 96 % of control | dose: 60.0 mg/kg/injection, schedule: Q01DX Z (ip), vehicle: carboxymethylcellulose (CMC) 91 % of control | dose: 120.0 mg/kg/injection, schedule: Q01DX Z (ip), vehicle: carboxymethylcellulose (CMC) 96 % of control

O=C(/C=C/c1ccc2c(c1)OCO2)c1ccccc1
inactive: dose: 50.0 mg/kg/injection, schedule: Q01DX009 (ip), vehicle: Klucel (hydroxypropylcellulose) (HPC) 97 % of control | [16] 103 % of control | [17] 102 % of control | [18] 106 % of control | [19] 93 % of control | [21] 103 % of control | [20] 98 % of control

CC(O)(c1ccccc1)c1ccccc1S(=O)(=O)Nc1ccccc1 (stereo unspecified)
inactive: dose: 100.0 mg/kg/injection, schedule: Q01DX001 (ip), vehicle: carboxymethylcellulose (CMC) 101 % of control | dose: 200.0 mg/kg/injection, schedule: Q01DX001 (ip), vehicle: carboxymethylcellulose (CMC) 93 % of control | dose: 400.0 mg/kg/injection, schedule: Q01DX001 (ip), vehicle: carboxymethylcellulose (CMC) 95 % of control

O=[N+]([O-])c1ccc(OCC2CO2)cc1 (stereo unspecified)
inactive: dose: 100.0 mg/kg/injection, schedule: Q04DX002 (ip), vehicle: gum acacia 100 % of control | dose: 200.0 mg/kg/injection, schedule: Q04DX002 (ip), vehicle: gum acacia 117 % of control | dose: 400.0 mg/kg/injection, schedule: Q04DX002 (ip), vehicle: gum acacia 88 % of control

CC(C)(C)NC(=O)Oc1ccccc1C(=O)Nc1ccccc1
inactive: dose: 50.0 mg/kg/injection, schedule: Q01DX009 (ip), vehicle: saline with Tween-80 97 % of control and 103 % of control | [13] 101 % of control and 103 % of control | [14] 95 % of control and 98 % of control | [15] 92 % of control
